Activity and IC50 data for 4 molecules are collected here from ChEMBL document CHEMBL1151951, “Brartemicin, an inhibitor of tumor cell invasion from the actinomycete Nonomuraea sp” (J Nat Prod, 2009).

A short description of assay [1]: Antiinvasive activity against mouse 26-L5 cells at 1 ug/ml. Type of assay: functional.
The species named for assay [2] is Mus musculus. As to the kind of experiment: Cytotoxicity against mouse 26-L5 cells at 10 ug/ml. Type of assay: functional, cell-based.
The species named for assay [3] is Mus musculus. As to the kind of experiment: Antiinvasive activity against mouse 26-L5 cells assessed as inhibition of cell migration. Type of assay: functional, cell-based.
Assay [4] is described as follows: Antiinvasive activity against mouse 26-L5 cells. Type of assay: functional, cell-based.

Structures are written as SMILES. The source made the active and inactive calls. The calls are words filed in the database; no cut-off is given here.

Consider `O=C(OC[C@H]1O[C@H](O[C@H]2O[C@H](COC(=O)c3cccc(O)c3O)[C@@H](O)[C@H](O)[C@H]2O)[C@H](O)[C@@H](O)[C@@H]1O)c1cccc(O)c1O`, for which, in assay [1], the Activity is listed as 40%.

In assay [1], `O=C(OC[C@H]1O[C@H](O[C@H]2O[C@H](COC(=O)c3ccccc3O)[C@@H](O)[C@H](O)[C@H]2O)[C@H](O)[C@@H](O)[C@@H]1O)c1ccccc1O` showed an Activity of 35%. In the case of `O=C(OC[C@H]1O[C@H](O[C@H]2O[C@H](COC(=O)c3ccccc3)[C@@H](O)[C@H](O)[C@H]2O)[C@H](O)[C@@H](O)[C@@H]1O)c1ccccc1`, the Activity in assay [1] is 51%. Turning to `Cc1cc(O)cc(O)c1C(=O)OC[C@H]1O[C@H](O[C@H]2O[C@H](COC(=O)c3c(C)cc(O)cc3O)[C@@H](O)[C@H](O)[C@H]2O)[C@H](O)[C@@H](O)[C@@H]1O` [BRARTEMICIN], the Activity result was “Not toxic” in assay [2] and 59% in assay [1]. Moreover, the outcome in assay [3] was inactive. Further, the concentration for half-maximal inhibition (IC50) in assay [4] was 390 nM.

As a reminder, the IC50 is the concentration at which inhibition is half-maximal. A low value points to higher potency.
